How the values were obtained:
Assay type in all cases: in vivo, swine
gilts [1] = assay: Example 1: ovulation monitoring by transrectal ultrasonography after triptorelin gel at 96, 120 or 144 h after last MATRIX feeding; conditions: raw average, PTK 1-07 (rep 3); for % of Sows Ovulating: 200 mcg T at 120 h
Method: All gilts were individually fed MATRIX® as a top-dress for 14 days at the recommended rate of 15 mg/gilt/day. Gilts were withdrawn from MATRIX® feeding (last top feed in the morning on Day 0) and allotted to treatments. Controls were treated with a 1.2% methylcellulose gel formulation without triptorelin at 96 hours following MATRIX® withdrawal (last top-dress). The remaining gilts received 200 mcg triptorelin, as the acetate, in a 1.2% methylcellulose gel formulation intravaginally at various times after MATRIX® withdrawal. The four treatments were: 1) vehicle gel (VG) treatment at 96 hours after MATRIX® withdrawal, 2) triptorelin gel (TG) treatment at 96 hours after MATRIX® withdrawal, 3) TG treatment at 120 hours after MATRIX® withdrawal and 4) TG treatment at 144 hours after MATRIX® withdrawal. All gilts were monitored for their estrous and ovulatory status as described below. Gilts included in replicate 1 were selected from terminal line commercial production gilts located in grow/finish barns. Sexual maturity, as indicated by one or more estrous periods, was not verified prior to the start of MATRIX® feeding. Gilts included in replicate 2 were selected from a maternal line gilt population. Sexual maturity was verified by at least one estrous period verified and recorded prior to starting MATRIX® feeding.
The ovulatory status of all gilts was monitored by transrectal ultrasonography. For replicate one, ovulation was monitored two times on Day 5, then three times a day from Day 6 to Day 8. For replicate two, ovulation was monitored three times a day from Day 5 to Day 8. An Aloka 500 ultrasound machine with a 7.5 MHz linear array transducer attached to a fixed-angle PVC stabilizing rod to facilitate insertion into the rectum was used for this purpose. The transducer and PVC rod were coated with a gynecological lubricant and gently inserted into the rectum until the ovaries were visualized, one at a time. The diameters of the three largest follicles were recorded (to the nearest 0.1 mm) at each scanning. A gilt was declared to have ovulated when the number of large follicles (≥6.5 mm) fell to less than 3.
(§1) A single 2 mL dose of triptorelin gel or vehicle gel was deposited within approximately 1-2 cm posterior to the cervix with a catheter similar to those used for artificial insemination. The dose was delivered using a standard multi-dose applicator attached to the catheter. A new disposable sheath, which surrounds the catheter, was used for each gilt.
Data were analyzed using the Mixed Models procedures of SAS. Models included main effects of time of treatment following the last feeding of MATRIX®, replicate, and treatment by replicate interaction. Differences between treatments were tested on least squares means estimates using the T test at P<0.05. Data for analysis were tested for assumptions of data normality.

LH = assay: Example 5: serum LH surge after triptorelin gel (jugular blood sampling); conditions: for Magnitude of LH surge: maximum serum LH concentration; for Onset of LH surge / Time of maximum LH conc.: relative to time of triptorelin gel treatment; for Time of maximum LH conc.: in h (unit assumed); for Gilts, which displayed a LH surge: number of gilts
Method: (§2) All gilts were individually fed MATRIX® as a top-dress for 14 or 15 days at the recommended rate of 15 mg/gilt/day. Gilts were withdrawn from MATRIX® feeding (last top-dress in the morning on Day 0) and allocated to each of the following treatments. Controls were vehicle gel treated (vehicle gel without triptorelin) at 120 (+/−2) hours following MATRIX® withdrawal (last top dress). The other gilts were given 100, 200 or 400 mcg triptorelin as the acetate in a methylcellulose gel formulation 120 (+/−2) hours following MATRIX® withdrawal. The four treatments were:
A catheter was inserted non-surgically into the jugular vein (Kraeling et al. 1982) of a subpopulation of gilts in each treatment group (vehicle gel, n=8; 100 mcg triptorelin, n=6; 200 mcg triptorelin, n=7 and 400 mcg triptorelin, n=6). Ten mL blood samples were collected every 15 minutes for one hour prior to treatment, immediately following treatment (0) and at 0.5, 1, 2, 4, 6, 12, 18, 24, 36 and 48 hours after treatment. Blood samples were maintained at 4° C. until centrifuged at 800×g for 15 minutes within 12 hours of collection. The resulting serum was stored frozen until assayed for LH using validated procedures for pig serum (Kesner et al., 1987 and Kraeling et al., 1982). Onset, duration, and magnitude of the LH surge were analyzed. The LH data were analyzed with the General Linear Models procedure of SAS. Differences between treatments were tested on least squares means estimates using the T test at P<0.05. Onset of the LH surge is when serum LH concentration is greater than or equal to two standard deviations of the mean of the pre-treatment serum LH concentrations. Duration of the LH surge is the period between onset and when serum LH concentration is again less than or equal to two standard deviations of the mean of the pre-treatment serum LH concentrations. Magnitude of the LH surge is the maximum serum LH concentration reached during the LH surge.
as §1

gilts [2] = assay: Example 5: estrus detection after 100, 200 or 400 mcg triptorelin gel; conditions: raw average, PTK 2-07
Method: as §2
For post-treatment estrus detection, gilts were housed in individual pens. Boars were housed in separate rooms, and/or at least 12 m away and downwind. To elicit signs of estrus, a mature boar was walked slowly in the alley in front of the gilts' crates, exposing each test gilt to visual, auditory and olfactory signals from the boar for up to 5 minutes. In keeping with standard practice at commercial farms, while the boar was near the front of the gilt's crate, estrus was tested by an experienced person applying back pressure to the midsection of the gilt combined with side rubbing. Estrus was confirmed when a gilt stood rigidly to the back pressure, with no vocalization and with some indication of an ear reflex. Gilts were not exposed to boars during the first three days after withdrawal of MATRIX® (Day 0 to Day 2). Estrus detection was performed daily on all gilts from Day 3 to Day 7.
as §1

[3] = 200 mcg T at 120 h after MATRIX withdrawal
[4] = 100 mcg T (n = 6), Least Squares Mean ± SE
[5] = 200 mcg T (n = 7), Least Squares Mean
[6] = 400 mcg T (n = 6), Least Squares Mean ± SE
[7] = 100 mcg T at 120 h after MATRIX withdrawal
[8] = 400 mcg T at 120 h after MATRIX withdrawal

For `CC(C)C[C@H](NC(=O)[C@@H](Cc1c[nH]c2ccccc12)NC(=O)[C@H](Cc1ccc(O)cc1)NC(=O)[C@H](CO)NC(=O)[C@H](Cc1c[nH]c2ccccc12)NC(=O)[C@H](Cc1c[nH]cn1)NC(=O)[C@@H]1CCC(=O)N1)C(=O)N[C@@H](CCCNC(=N)N)C(=O)N1CCC[C@H]1C(=O)NCC(N)=O` [T, pGlu-His-Trp-Ser-Tyr-D-Trp-Leu-Arg-Pro-Gly-NH2], the “% of Sows Ovulating” value (gilts [1]; 128 h post-MATRIX, 8 h post-T) was 0.0%, the “% of Sows Ovulating” value (gilts [1]; 136 h post-MATRIX, 16 h post-T) was 10.0% and the “% of Sows Ovulating” value (gilts [1]; 144 h post-MATRIX, 24 h post-T) was 30.0%. The “% of Sows Ovulating” value (gilts [1]; 152 h post-MATRIX, 32 h post-T) was 70.0%, the “% of Sows Ovulating” value (gilts [1]; 160 h post-MATRIX, 40 h post-T) was 80.0% and the “% of Sows Ovulating” value (gilts [1]; 168 h post-MATRIX, 48 h post-T) was 90.0%. The “% of Sows Ovulating” value (gilts [1]; 176 h post-MATRIX, 56 h post-T) was 100.0%, the “Interval from MATRIX Withdrawal to Ovulation” value (gilts [1]; [3]) was 153.6 and the “Duration of LH surge” value (LH; [4]) was 19 ± 2. For the same compound, the “Magnitude of LH surge” value (LH; [4]) was 3.94 ± 1.22, the “Onset of LH surge” value (LH; [4]) was 4 ± 3 and the “Time of maximum LH conc.” value (LH; [4]) was 11 ± 7. For the same compound, the “Gilts, which displayed a LH surge” value (LH; 100 mcg T in gel at 120 h post-MATRIX (n = 6 catheterized gilts)) was 4, the “Duration of LH surge” value (LH; [5]) was 18 and the “Magnitude of LH surge” value (LH; [5]) was 8.98. For the same compound, the “Onset of LH surge” value (LH; [5]) was 0.5, the “Time of maximum LH conc.” value (LH; [5]) was 4 and the “Gilts, which displayed a LH surge” value (LH; 200 mcg T in gel at 120 h post-MATRIX (n = 7 catheterized gilts)) was 1. The “Duration of LH surge” value (LH; [6]) was 17 ± 4, the “Magnitude of LH surge” value (LH; [6]) was 11.65 ± 12.35 and the “Onset of LH surge” value (LH; [6]) was 4 ± 4. For the same compound, the “Time of maximum LH conc.” value (LH; [6]) was 12 ± 4, the “Gilts, which displayed a LH surge” value (LH; 400 mcg T in gel at 120 h post-MATRIX (n = 6 catheterized gilts)) was 5 and the “Estrous Expression (%)” value (gilts [2]; [7]) was 75.0%. For the same compound, the “Interval from MATRIX withdrawal to Estrus” value (from here on “Interval … to Estrus”) (gilts [2]; [7]) was 134.4 h, the “Estrous Expression (%)” value (gilts [2]; [3]) was 81.0% and the “Interval … to Estrus” value (gilts [2]; [3]) was 136.9 h. The “Estrous Expression (%)” value (gilts [2]; [8]) was 86.4% and the “Interval … to Estrus” value (gilts [2]; [8]) was 133.9 h.
